Measurements: ChEMBL document CHEMBL6096689, “Structure-Guided Development of ClpP Agonists with Potent Therapeutic Activities against Staphylococcus aureus Infection” (J Med Chem, 2025)
≈ marks a conversion by molar mass, not a printed value. Calls of active or inactive are those of the source. No cut-off for these calls is given here.

Assays:
[1] = tested on: Staphylococcus aureus; assay: microbe, parasite or virus in culture; assay type: functional; settings: NRS-271, time 18 hrs
Description: Antibacterial activity against methicillin-resistant Staphylococcus aureus NRS-271 assessed as inhibition of visible growth of bacteria incubated for 18 hrs by absorbance based analysis

[2] = tested on: Staphylococcus aureus; assay: Antibacterial activity against Staphylococcus aureus USA300 infected in female ICR mouse peritonitis model assessed as reduction in bacterial load in spleen at 25 to 100 mg/kg, ip pre-infected for 1 hrs followed by compound addition and measured after 5 days relative to control; assay type: functional; settings: dose 25-100 mg/kg, time 5 day
[3] = Therapeutic index, ratio of IC50 for human ARH-77 cells to MIC for Staphylococcus aureus Newman; assay type: toxicity, cell-based; settings: read-out: TI
[4] = tested on: Staphylococcus aureus; assay: microbe, parasite or virus in culture; assay type: functional; settings: NRS-108, time 18 hrs
Description: Antibacterial activity against methicillin-resistant Staphylococcus aureus NRS-108 assessed as inhibition of visible growth of bacteria incubated for 18 hrs by absorbance based analysis

[5] = tested on: Staphylococcus aureus; assay: Antibacterial activity against Staphylococcus aureus USA300 infected in female ICR mouse peritonitis model assessed as reduction in bacterial load in lung at 25 to 100 mg/kg, ip pre-infected for 1 hrs followed by compound addition and measured after 5 days relative to control; assay type: functional; settings: dose 25-100 mg/kg, time 5 day
[6] = tested on: Staphylococcus aureus; assay: Antibacterial activity against oxacillin-resistant Staphylococcus aureus clinical isolate XJ049 infected in female ICR mouse peritonitis model assessed as mouse survival at 50 mg/kg, ip pre-infected for 1 hrs followed by compound addition and measured after 5 days relative to control; assay type: functional; settings: 120 h, time 5 day
[7] = target: T1, ATP-dependent Clp protease proteolytic subunit, mitochondrial (Homo sapiens, UniProt Q16740); assay: Induction of thermal stabilization of CLpP in HEK293T/17 at 10 times of MIC preincubated for 2 hrs followed by compound washout and incubated under 57.3 to 74.5 degreeC for 3 mins by CETSA; assay type: cell-based
[8] = target: T2, ATP-dependent Clp protease proteolytic subunit (Staphylococcus aureus (strain NCTC 8325)) (UniProt Q2G036); assay: Agonist activity at Staphylococcus aureus ClpP extracted from Escherichia coli BL21 (DE3) cells assessed as induction of ClpP-mediated staphylococcus aureus FtsZ degradation preincubated for 15 mins followed by FtsZ addition by SDS-PAGE analysis; settings: filed as agonist, time <= 105.0 min
T2 sequence (whole entry): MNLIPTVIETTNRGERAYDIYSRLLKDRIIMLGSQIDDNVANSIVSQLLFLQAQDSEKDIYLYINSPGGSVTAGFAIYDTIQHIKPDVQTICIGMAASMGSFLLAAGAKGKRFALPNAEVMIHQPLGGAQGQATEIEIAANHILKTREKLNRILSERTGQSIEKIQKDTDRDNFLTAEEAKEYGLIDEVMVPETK

[9] = tested on: Staphylococcus aureus; assay: microbe, parasite or virus in culture; assay type: functional; settings: NRS-70, time 18 hrs
Description: Antibacterial activity against methicillin-resistant Staphylococcus aureus NRS-70 assessed as inhibition of visible growth of bacteria incubated for 18 hrs by absorbance based analysis

[10] = target: T3, ATP-dependent Clp protease proteolytic subunit (Staphylococcus aureus (strain NCTC 8325), UniProt Q2G036); assay: Agonist activity at Staphylococcus aureus ClpP extracted from Escherichia coli BL21 (DE3) cells using alpha-casein as substrate assessed as substrate hydrolysis preincubated for 15 mins followed by substrate addition and measured after 2 hrs by SDS-PAGE analysis
T3 sequence (Q2G036 whole entry): T2 sequence (whole entry)

[11] = Therapeutic index, ratio of IC50 for HK-2 cells to MIC for Staphylococcus aureus Newman; assay type: toxicity, cell-based; settings: human, read-out: TI
[12] = tested on: Staphylococcus aureus; assay: microbe, parasite or virus in culture; assay type: functional; settings: Newman, time 18 hrs
Description: Antibacterial activity against Staphylococcus aureus Newman assessed as inhibition of visible growth of bacteria incubated for 18 hrs by absorbance based analysis

[13] = target: T2, ATP-dependent Clp protease proteolytic subunit (Staphylococcus aureus (strain NCTC 8325)); assay: Induction of thermal stabilization of Staphylococcus aureus ClpP extracted from Escherichia coli BL21 (DE3) cells assessed as change in melting temperature at 10 uM incubated for 10 mins by DSF analysis
[14] = tested on: Staphylococcus aureus; assay: microbe, parasite or virus in culture; assay type: functional; settings: time 18 hrs
Description: Antibacterial activity against multidrug-resistant Staphylococcus aureus clinical isolate XJ049 assessed as inhibition of visible growth of bacteria incubated for 18 hrs by absorbance based analysis

[15] = tested on: Staphylococcus aureus; assay: Antibacterial activity against Staphylococcus aureus USA300 infected in female ICR mouse peritonitis model assessed as reduction in bacterial load in kidney at 25 to 100 mg/kg, ip pre-infected for 1 hrs followed by compound addition and measured after 5 days relative to control; assay type: functional; settings: dose 25-100 mg/kg, time 5 day
[16] = target: T4, Cell division protein FtsZ (Staphylococcus aureus) (UniProt P0A031); assay: Induction of FtsZ degradation in Staphylococcus aureus 8325-4 incubated for 3 hrs by Western blot analysis; settings: dose 1.25-10 µM
T4 sequence (whole entry): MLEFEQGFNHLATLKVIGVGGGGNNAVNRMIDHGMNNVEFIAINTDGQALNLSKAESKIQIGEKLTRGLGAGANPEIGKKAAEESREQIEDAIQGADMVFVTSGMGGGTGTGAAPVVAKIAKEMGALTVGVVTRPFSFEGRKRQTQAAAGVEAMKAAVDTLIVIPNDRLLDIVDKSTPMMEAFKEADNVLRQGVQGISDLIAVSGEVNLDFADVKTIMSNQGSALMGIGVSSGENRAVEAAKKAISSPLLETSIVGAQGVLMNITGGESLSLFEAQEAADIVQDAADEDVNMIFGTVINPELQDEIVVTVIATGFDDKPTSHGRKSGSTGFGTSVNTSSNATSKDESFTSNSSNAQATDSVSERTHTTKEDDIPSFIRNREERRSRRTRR

[17] = tested on: Staphylococcus aureus; assay: Antibacterial activity against CLpP complemented Staphylococcus aureus 8325-4 assessed as inhibition of visible growth of bacteria incubated for 18 hrs by absorbance based assay; assay type: functional, organism-based
[18] = tested on: Staphylococcus aureus; assay: Antibacterial activity against Staphylococcus aureus USA300 infected in female ICR mouse peritonitis model assessed as reduction in bacterial load in peritoneal fluid at 25 to 100 mg/kg, ip pre-infected for 1 hrs followed by compound addition and measured after 5 days relative to control; assay type: functional; settings: dose 25-100 mg/kg, time 5 day
[19] = Agonist activity at Lactobacillus acidophilus ClpP using alpha-casein as substrate assessed as substrate hydrolysis preincubated for 15 mins followed by substrate addition and measured after 2 hrs by SDS-PAGE analysis
[20] = tested on: Staphylococcus aureus; assay: Antibacterial activity against Staphylococcus aureus USA300 infected in Zebrafish infection model assessed as increase in zebrafish survival at 0.5 mg/kg pre-infected for 1 hrs followed by compound addition and measured after 5 days; assay type: functional, organism-based; settings: time 5.0 day
[21] = target: T1, ATP-dependent Clp protease proteolytic subunit, mitochondrial; assay: Agonist activity at human ClpP extracted from Escherichia coli Rosetta (DE3) cells using alpha-casein as substrate assessed as substrate hydrolysis preincubated for 15 mins followed by substrate addition and measured after 2 hrs by SDS-PAGE analysis
[22] = target: T3, ATP-dependent Clp protease proteolytic subunit; assay: Agonist activity at Staphylococcus aureus ClpP extracted from Escherichia coli BL21 (DE3) cells using FITC-casein as substrate assessed as substrate hydrolysis preincubated for 60 mins followed by substrate addition and measured after 1 hrs by fluorescence based analysis
[23] = target: ATP-dependent Clp protease proteolytic subunit (Escherichia coli (strain K12), UniProt P0A6G7); assay: Agonist activity at Escherichia coli ClpP using alpha-casein as substrate assessed as substrate hydrolysis preincubated for 15 mins followed by substrate addition and measured after 2 hrs by SDS-PAGE analysis
[24] = target: T2, ATP-dependent Clp protease proteolytic subunit (Staphylococcus aureus (strain NCTC 8325)); assay: Induction of thermal stabilization of CLpP in Staphylococcus aureus Newman at 10 times of MIC preincubated for 2 hrs followed by compound washout and incubated under 57.3 to 74.5 degreeC for 3 mins by CETSA
[25] = tested on: Staphylococcus aureus; assay: microbe, parasite or virus in culture; assay type: functional; settings: time 18 hrs; remark: listed apart in the source
Description: Antibacterial activity against multidrug-resistant Staphylococcus aureus clinical isolate XJ009 assessed as inhibition of visible growth of bacteria incubated for 18 hrs by absorbance based analysis

[26] = tested on: Staphylococcus aureus; assay: microbe, parasite or virus in culture; assay type: functional; settings: USA300, time 18 hrs
Description: Antibacterial activity against methicillin-resistant Staphylococcus aureus USA300 assessed as inhibition of visible growth of bacteria incubated for 18 hrs by absorbance based analysis

[27] = tested on: Staphylococcus aureus; assay: microbe, parasite or virus in culture; assay type: functional; settings: time 18 hrs; remark: listed apart in the source
Description: Antibacterial activity against multidrug-resistant Staphylococcus aureus clinical isolate XJ025 assessed as inhibition of visible growth of bacteria incubated for 18 hrs by absorbance based analysis

T1 sequence (Q16740 whole entry): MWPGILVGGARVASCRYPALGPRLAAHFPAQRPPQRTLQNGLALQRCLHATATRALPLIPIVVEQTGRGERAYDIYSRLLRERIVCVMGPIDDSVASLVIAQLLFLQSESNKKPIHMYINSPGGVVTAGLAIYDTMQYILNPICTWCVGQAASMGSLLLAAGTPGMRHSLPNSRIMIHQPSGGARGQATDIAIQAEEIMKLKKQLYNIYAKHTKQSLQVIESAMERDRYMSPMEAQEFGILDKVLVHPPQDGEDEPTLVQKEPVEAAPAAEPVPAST
ATP-dependent Clp protease proteolytic subunit (Escherichia coli (strain K12), UniProt P0A6G7), sequence (P0A6G7 whole entry): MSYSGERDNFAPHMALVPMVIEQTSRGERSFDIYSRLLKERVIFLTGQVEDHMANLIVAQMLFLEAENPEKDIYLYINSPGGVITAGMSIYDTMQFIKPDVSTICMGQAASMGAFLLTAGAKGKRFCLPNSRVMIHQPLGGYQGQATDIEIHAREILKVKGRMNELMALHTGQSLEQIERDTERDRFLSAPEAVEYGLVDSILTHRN

Structure (SMILES): CC[C@H](C)[C@H]1C(=O)N(Cc2ccc(OC)c3ccccc23)C[C@@H]2N(C(=O)NCCCC(F)(F)F)CCC(=O)N12
- MIC [1]: 0.06 µg/mL (≈ 0.109 µM)
- Activity [2]: 2 log10CFU/g
- selectivity ratio [3]: 206
- MIC [4]: 0.06 µg/mL (≈ 0.109 µM)
- Activity [5]: 2 log10CFU/g
- survival at 50 mg/kg [6]: 100%
- Activity [7]: Active; Minimal Effect On Thermal Stability Observed
- Activity [8]: Time-dependent-effect
- MIC [9]: 0.06 µg/mL (≈ 0.109 µM)
- EC50 [10]: 1100 nM
- selectivity ratio [11]: 180
- MIC [12]: 0.063 µg/mL (≈ 0.115 µM)
- ΔTm [13]: 22.8 °C
- MIC [14]: 0.13 µg/mL (≈ 0.237 µM)
- Activity [15]: 2 log10CFU/g
- Activity [16]: Dose-dependent-effect
- Activity [17]: Active
- Activity [18]: 2 log10CFU/g
- EC50 [19]: > 100000 nM
- Activity [20]: Active; Significant Improvement Observed Compared To 0.5 Mg/Kg Of Vancomycin
- EC50 [21]: 3600 nM
- EC50 [22]: 330 nM
- EC50 [23]: > 100000 nM
- Activity [24]: Active
- MIC [25]: 0.06 µg/mL (≈ 0.109 µM)
- MIC [26]: 0.06 µg/mL (≈ 0.109 µM)
- MIC [27]: 0.13 µg/mL (≈ 0.237 µM)
